Consider 27 molecules from patent EP4206196A1, “PYRIMIDINE SUBSTITUTED DERIVATIVES AS TYK2 INHIBITORS” (Almirall S.A., priority 2021, dated 2023).

Like-named read-outs stand apart in the source and are kept apart here.

For assay [1], the system named is STAT1/3 through TYK2/JAK1. Kind of assay: IFNa induced STAT phosphorylation in HEK293 cells (SIE-bla reporter gene). It is filed as cell-based. Conditions: HEK293T-sie-bla cells, IFNa at EC80, 4 hours, read-out: Inhibition of IFNa induced STAT phosphorylation HEK293 cells IC50. Put shortly:
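HEK293T cells carrying a SIE-driven β-lactamase reporter were co-treated with compound (1/5 serial dilution, 10 points, 0.1% DMSO final) and IFNa at EC80 for 4 h at 37°C. β-Lactamase substrate was added to stop the stimulation, followed by overnight dark incubation and FRET read. IC50 from a four-parameter logistic fit.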

Assay [2] has as its target T1, TYK2 (JH2domain-pseudokinase) (Homo sapiens, UniProt P29597).
T1 construct: TYK2 (JH2domain-pseudokinase)-tagged T7 phage strains were prepared in an E. coli host derived from the BL21 strain; made in house; host or cells: E. coli BL21-derived host (T7 phage) or HEK-293 cells
Kind of assay: TYK2 JH2 domain binding assay (KINOMEscan). The essentials:
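Competition binding of DNA-tagged TYK2 JH2 pseudokinase domain against immobilised affinity ligand, 1 h at room temperature in SeaBlock/PBS/Tween/DTT buffer with about 1% DMSO. Bound kinase eluted and quantified by qPCR. Kd taken from 11-point 3-fold series, usually 30,000 nM top, fitted by Levenberg-Marquardt nonlinear least squares.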

T1 sequence (P29597 589-875 limits assumed): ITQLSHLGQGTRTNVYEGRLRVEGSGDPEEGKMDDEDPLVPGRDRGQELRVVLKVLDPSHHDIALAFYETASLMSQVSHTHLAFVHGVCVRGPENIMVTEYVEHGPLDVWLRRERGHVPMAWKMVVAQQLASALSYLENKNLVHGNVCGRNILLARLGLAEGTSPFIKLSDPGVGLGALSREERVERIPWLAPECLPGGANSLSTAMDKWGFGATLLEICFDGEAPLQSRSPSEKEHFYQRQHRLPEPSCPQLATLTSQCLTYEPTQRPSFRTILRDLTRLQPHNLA

As for `Cc1c(-c2cnc(Nc3cc(NC(=O)C4CC4)ncn3)c(S(C)(=O)=O)c2)cnn1C` [Example 151, N-[6-[[5-(1,5-dimethylpyrazol-4-yl)-3-methylsulfonyl-2-pyridyl]amino]pyrimidin-4-yl]cyclopropanecarboxamide], the IC50 in assay [1] (Homo sapiens, HEK293) is less than 10 nM. The molecule also displayed a Kd in assay [2] of less than 0.2 nM.

Take “N4-(2,6-dimethylpyrimidin-4-yl)-N6-[4-(3-methylimidazol-4-yl)-2-methylsulfonyl-phenyl]pyrimidine-4,6-diamine [Example 26]”: the IC50 in assay [1] was 100 to 1000 nM. Also, the Kd in assay [2] lay in the range of 0.2 to 1 nM.

Turning to `Cc1cc(Nc2cc(Nc3nc(C)c(-c4cnn(C)c4C)cc3N(C)S(C)(=O)=O)ncn2)ncn1` [Example 163, N-[5-(1,5-dimethylpyrazol-4-yl)-6-methyl-2-[[6-[(6-methylpyrimidin-4-yl)amino]pyrimidin-4-yl]amino]-3-pyridyl]-N-methyl-methanesulfonamide], the IC50 in assay [1] (Homo sapiens, HEK293) is less than 10 nM. The molecule further displayed an equilibrium dissociation constant (Kd) in assay [2] of less than 0.2 nM.

As to `COc1c(Nc2cc(Nc3cc(C)nc(C)n3)ncn2)cccc1-c1ncn(C2CC2(F)F)n1` (stereo not drawn) [Example 55, N6-[3-[1-(2,2-difluorocyclopropyl)-1,2,4-triazol-3-yl]-2-methoxy-phenyl]-N4-(2,6-dimethylpyrimidin-4-yl)pyrimidine-4,6-diamine], the IC50 in assay [1] (Homo sapiens, HEK293) lay within 10 to 100 nM. This molecule also registered a Kd in assay [2] of 0.2 to 1 nM.

In the case of `CN=S(C)(=O)c1cccnc1Nc1cc(Nc2cc(C)nc(C)n2)ncn1` (stereo not drawn) [Example 164, N4-(2,6-dimethylpyrimidin-4-yl)-N6-[3-(N,S-dimethylsulfonimidoyl)-2-pyridyl]pyrimidine-4,6-diamine], the IC50 in assay [1] (Homo sapiens, HEK293) lay within 10 to 100 nM. In assay [2], this molecule displayed a Kd of less than 0.2 nM.

As to `CN(c1ccccc1Nc1cc(NC(=O)C2CC2)ncn1)S(C)(=O)=O` [Example 14, N-[6-[2-[methyl(methylsulfonyl)amino]anilino]pyrimidin-4-yl]cyclopropanecarboxamide], in assay [1] (Homo sapiens, HEK293), the IC50 lay within 100 to 1000 nM. In assay [2], this molecule registered a dissociation constant Kd of 0.2 to 1 nM.

With `COc1cc(-c2noc(C)n2)ccc1Nc1cc(Nc2cc(C)nc(C)n2)ncn1` [Example 93, N6-(2,6-dimethylpyrimidin-4-yl)-N4-[2-methoxy-4-(5-methyl-1,2,4-oxadiazol-3-yl)phenyl]pyrimidine-4,6-diamine], the IC50 in assay [1] (Homo sapiens, HEK293) is more than 1000 nM. In assay [2], the Kd was in the range of 1 to 10 nM.

`COc1c(-c2noc(C(F)(F)F)n2)ccnc1Nc1cc(Nc2cc(C)nc(C)n2)ncn1` [Example 143, N6-(2,6-dimethylpyrimidin-4-yl)-N4-[3-methoxy-4-[5-(trifluoromethyl)-1,2,4-oxadiazol-3-yl]-2-pyridyl]pyrimidine-4,6-diamine]: the half-maximal inhibitory concentration (IC50) in assay [1] (Homo sapiens, HEK293) is more than 1000 nM. Besides, the Kd in assay [2] lay within 1 to 10 nM.

Turning to `Cc1cc(Nc2cc(Nc3ccc(C4CCOCC4)cc3N(C)S(C)(=O)=O)ncn2)nc(C)n1` [Example 106, N-[2-[[6-[(2,6-dimethylpyrimidin-4-yl)amino]pyrimidin-4-yl]amino]-5-tetrahydropyran-4-yl-phenyl]-N-methyl-methanesulfonamide], the IC50 in assay [1] (Homo sapiens, HEK293) lay in the range of 10 to 100 nM. The molecule further gave a dissociation constant Kd in assay [2] of less than 0.2 nM.

With `COc1c(-c2noc(C)n2)ccnc1Nc1cc(Nc2cc(C)nc(C)n2)ncn1` [Example 159, 4-N-(2,6-dimethylpyrimidin-4-yl)-6-N-[3-methoxy-4-(5-methyl-1,2,4-oxadiazol-3-yl)pyridin-2-yl]pyrimidine-4,6-diamine], the IC50 in assay [1] (Homo sapiens, HEK293) is less than 10 nM. The Kd in assay [2] is less than 0.2 nM.

As for `COc1cc(-c2ncc(F)cn2)ccc1Nc1cc(Nc2cc(C)nc(C)n2)ncn1` [Example 81, N4-(2,6-dimethylpyrimidin-4-yl)-N6-[4-(5-fluoropyrimidin-2-yl)-2-methoxyphenyl]pyrimidine-4,6-diamine], in assay [1] (Homo sapiens, HEK293), the IC50 was more than 1000 nM. The same molecule had a Kd in assay [2] of more than 10 nM.

`Cc1cc(Nc2cc(Nc3nccc(C)c3N(C)S(C)(=O)=O)ncn2)nc(C)n1` [Example 61, N-(2-((6-((2,6-dimethylpyrimidin-4-yl)amino)pyrimidin-4-yl)amino)-4-methylpyridin-3-yl)-N-methylmethanesulfonamide]: the IC50 in assay [1] (Homo sapiens, HEK293) fell in the range of 100 to 1000 nM. The Kd in assay [2] was in the range of 1 to 10 nM.

As for `Cc1cc(Nc2cc(Nc3ncc(-c4cnc(C)n4C)cc3N(C)S(C)(=O)=O)ncn2)nc(C)n1` [Example 142, N-[5-(2,3-dimethylimidazol-4-yl)-2-[[6-[(2,6-dimethylpyrimidin-4-yl)amino]pyrimidin-4-yl]amino]-3-pyridyl]-N-methyl-methanesulfonamide], in assay [1] (Homo sapiens, HEK293), the half-inhibitory concentration (IC50) was 10 to 100 nM. In addition, the Kd in assay [2] was less than 0.2 nM.

Consider `Cc1cc(Nc2cc(Nc3ncc(-c4cnn(C)c4C)cc3NS(C)(=O)=O)ncn2)nc(C)n1` [Example 144, N-[5-(1,5-dimethylpyrazol-4-yl)-2-[[6-[(2,6-dimethylpyrimidin-4-yl)amino]pyrimidin-4-yl]amino]-3-pyridyl]methanesulfonamide], for which the half-inhibitory concentration (IC50) in assay [1] (Homo sapiens, HEK293) lay within 10 to 100 nM. For the same molecule, the Kd in assay [2] was less than 0.2 nM.

As for `COc1c(Nc2cc(Nc3cc(C)nc(C)n3)ncn2)cccc1C(F)(F)F` [Example 18, N6-(2,6-dimethylpyrimidin-4-yl)-N4-[2-methoxy-3-(trifluoromethyl)phenyl] pyrimidine-4,6-diamine], the 50% inhibitory concentration (IC50) in assay [1] (Homo sapiens, HEK293) is more than 1000 nM. The same molecule registered a Kd in assay [2] of 1 to 10 nM.

On to `[2H]C([2H])([2H])N(c1cccnc1Nc1cc(Nc2cc(C)nc(C)n2)ncn1)S(C)(=O)=O` [Example 121, N-[2-[[6-[(2,6-dimethylpyrimidin-4-yl)amino]pyrimidin-4-yl]amino]-3-pyridyl]-N-(trideuteriomethyl)methanesulfonamide], for which the IC50 in assay [1] (Homo sapiens, HEK293) lay in the range of 10 to 100 nM. The equilibrium dissociation constant (Kd) in assay [2] is less than 0.2 nM.

For `CCn1cnc(-c2cccc(Nc3cc(Nc4cc(C)nc(C)n4)ncn3)c2OC)n1` [Example 46, N4-(2,6-dimethylpyrimidin-4-yl)-N6-[3-(1-ethyl-1,2,4-triazol-3-yl)-2-methoxy-phenyl]pyrimidine-4,6-diamine], the 50% inhibitory concentration (IC50) in assay [1] (Homo sapiens, HEK293) is 10 to 100 nM. Besides, in assay [2], the Kd is less than 0.2 nM.

In the case of `[2H]C([2H])([2H])N(c1cc(-c2nnc(C)n2C)cnc1Nc1cc(Nc2cc(C)nc(C)n2)ncn1)S(C)(=O)=O` [Example 136, N-[2-[[6-[(2,6-dimethylpyrimidin-4-yl)amino]pyrimidin-4-yl]amino]-5-(4,5-dimethyl-1,2,4-triazol-3-yl)-3-pyridyl]-N-(trideuteriomethyl)methanesulfonamide], in assay [1] (Homo sapiens, HEK293), the IC50 is less than 10 nM. The same molecule returned an equilibrium dissociation constant (Kd) in assay [2] of less than 0.2 nM.

As for `COc1cc(-c2cnn(C)c2C)cnc1Nc1cc(Nc2cc(C)nc(C)n2)ncn1` [Example 146, N6-[5-(1,5-dimethylpyrazol-4-yl)-3-methoxy-2-pyridyl]-N4-(2,6-dimethylpyrimidin-4-yl)pyrimidine-4,6-diamine], in assay [1] (Homo sapiens, HEK293), the half-inhibitory concentration (IC50) is less than 10 nM. The same molecule came in with a Kd in assay [2] of less than 0.2 nM.

As to `Cc1cc(C)c(N(C)S(C)(=O)=O)c(Nc2cc(Nc3cc(C)ncn3)ncn2)c1` [Example 100, N-[2,4-dimethyl-6-[[6-[(6-methylpyrimidin-4-yl)amino]pyrimidin-4-yl]amino]phenyl]-N-methylmethanesulfonamide], the IC50 in assay [1] (Homo sapiens, HEK293) was more than 1000 nM. Also, in assay [2], the Kd is more than 10 nM.

For the molecule `Cc1cc(Nc2cc(Nc3ncc(-c4ncnn4C)cc3N(C)S(C)(=O)=O)ncn2)nc(C)n1` [Example 130, N-[2-[[6-[(2,6-dimethylpyrimidin-4-yl)amino]pyrimidin-4-yl]amino]-5-(2-methyl-1,2,4-triazol-3-yl)-3-pyridyl]-N-methyl-methanesulfonamide], in assay [1] (Homo sapiens, HEK293), the IC50 was 100 to 1000 nM. The Kd in assay [2] was in the range of 0.2 to 1 nM.

Consider `COc1cc(C2CCOC2)ccc1Nc1cc(Nc2cc(C)nc(C)n2)ncn1` (stereo not drawn) [Example 117, N4-(2,6-dimethylpyrimidin-4-yl)-N6-(2-methoxy-4-tetrahydrofuran-3-yl-phenyl)pyrimidine-4,6-diamine], for which the IC50 in assay [1] (Homo sapiens, HEK293) is more than 1000 nM. In assay [2], the Kd lay in the range of 1 to 10 nM.

With `Cc1cc(Nc2cc(Nc3ncccc3P(C)(C)=O)ncn2)nc(C)n1` [Example 145, N6-(3-dimethylphosphoryl-2-pyridyl)-N4-(2,6-dimethylpyrimidin-4-yl)pyrimidine-4,6-diamine], in assay [1] (Homo sapiens, HEK293), the IC50 is 10 to 100 nM. In addition, in assay [2], the dissociation constant Kd was less than 0.2 nM.

For the molecule `COc1c(Nc2cc(Nc3cc(C)nc(C)n3)ncn2)cccc1-c1ncn(CC2COC2)n1` [Example 51, N6-(2,6-dimethylpyrimidin-4-yl)-N4-[2-methoxy-3-[1-(oxetan-3-ylmethyl)-1,2,4-triazol-3-yl]phenyl]pyrimidine-4,6-diamine], in assay [1] (Homo sapiens, HEK293), the IC50 fell in the range of 10 to 100 nM. This molecule also showed a Kd in assay [2] of less than 0.2 nM.

On to `Cc1cc(Nc2cc(Nc3ncc(C4CC4)cc3P(C)(C)=O)ncn2)nc(C)n1` [Example 171, 4-N-(5-cyclopropyl-3-dimethylphosphorylpyridin-2-yl)-6-N-(2,6-dimethylpyrimidin-4-yl)pyrimidine-4,6-diamine], for which the IC50 in assay [1] (Homo sapiens, HEK293) lay within 10 to 100 nM. The same molecule showed a Kd in assay [2] of less than 0.2 nM.

Take `COc1c(Nc2cc(Nc3cc(C)nc(C)n3)ncn2)ccc(-c2cnn(C)c2C)c1C` [Example 84, N4-[4-(1,5-dimethylpyrazol-4-yl)-2-methoxy-3-methyl-phenyl]-N6-(2,6-dimethylpyrimidin-4-yl)pyrimidine-4,6-diamine]: the IC50 in assay [1] (Homo sapiens, HEK293) was in the range of 10 to 100 nM. In assay [2], the equilibrium dissociation constant (Kd) was less than 0.2 nM.

As for `Cc1cc(Nc2cc(Nc3ccc(C4=CCOCC4)cc3N(C)S(C)(=O)=O)ncn2)nc(C)n1` [Example 95, N-[5-(3,6-dihydro-2H-pyran-4-yl)-2-[[6-[(2,6-dimethylpyrimidin-4-yl)amino]pyrimidin-4-yl]amino]phenyl]-N-methyl-methanesulfonamide], the IC50 in assay [1] (Homo sapiens, HEK293) is less than 10 nM. Besides, the Kd in assay [2] is less than 0.2 nM.
